Laboratory results reported in PubChem BioAssay (NCI).
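96-well plates; 48 h exposure; 5 concentrations. Endpoints by linear interpolation between flanking doses. Not reached: highest tested concentration assigned. At the TGI there is no net growth.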

Key:
Assay in all cases: NCI tumour cell line growth inhibition, 48 h
SK-MEL-5 melanoma = test system: SK-MEL-5 melanoma
RPMI-8226 leukemia = test system: RPMI-8226 leukemia
MOLT-4 leukemia = test system: MOLT-4 leukemia
ACHN renal = test system: ACHN renal
UACC-62 melanoma = test system: UACC-62 melanoma
SK-MEL-2 melanoma = test system: SK-MEL-2 melanoma
HOP-92 NSCLC = test system: HOP-92 NSCLC
NCI/ADR-RES ovarian = test system: NCI/ADR-RES ovarian
HT29 colon = test system: HT29 colon
OVCAR-3 ovarian = test system: OVCAR-3 ovarian
EKVX NSCLC = test system: EKVX NSCLC
UACC-257 melanoma = test system: UACC-257 melanoma
PC-3 prostate = test system: PC-3 prostate
SR leukemia = test system: SR leukemia
SF-539 CNS = test system: SF-539 CNS
KM12 colon = test system: KM12 colon
SK-MEL-28 melanoma = test system: SK-MEL-28 melanoma
CAKI-1 renal = test system: CAKI-1 renal
OVCAR-4 ovarian = test system: OVCAR-4 ovarian
T-47D breast = test system: T-47D breast
MALME-3M melanoma = test system: MALME-3M melanoma
HCC-2998 colon = test system: HCC-2998 colon
IGROV1 ovarian = test system: IGROV1 ovarian
MDA-MB-231 breast = test system: MDA-MB-231 breast
SF-295 CNS = test system: SF-295 CNS
SNB-75 CNS = test system: SNB-75 CNS
HCT-15 colon = test system: HCT-15 colon
OVCAR-8 ovarian = test system: OVCAR-8 ovarian
SK-OV-3 ovarian = test system: SK-OV-3 ovarian
A498 renal = test system: A498 renal
M14 melanoma = test system: M14 melanoma
UO-31 renal = test system: UO-31 renal
U251 CNS = test system: U251 CNS
786-0 renal = test system: 786-0 renal
HS 578T breast = test system: HS 578T breast
TK-10 renal = test system: TK-10 renal
DU-145 prostate = test system: DU-145 prostate
MCF7 breast = test system: MCF7 breast
BT-549 breast = test system: BT-549 breast
SW-620 colon = test system: SW-620 colon
CCRF-CEM leukemia = test system: CCRF-CEM leukemia
LOX IMVI melanoma = test system: LOX IMVI melanoma
K-562 leukemia = test system: K-562 leukemia
HCT-116 colon = test system: HCT-116 colon
A549 NSCLC = test system: A549 NSCLC
SN12C renal = test system: SN12C renal
OVCAR-5 ovarian = test system: OVCAR-5 ovarian
NCI-H226 lung = test system: NCI-H226 lung
NCI-H23 lung = test system: NCI-H23 lung
SNB-19 CNS = test system: SNB-19 CNS
MDA-MB-435 = test system: MDA-MB-435
COLO 205 colon = test system: COLO 205 colon
HOP-62 NSCLC = test system: HOP-62 NSCLC
SF-268 CNS = test system: SF-268 CNS

Molecule `COC(=O)CN1SC2(SC13C(C)(C)C(=O)C3(C)C)C(C)(C)C(=O)C2(C)C` has a TGI (SK-MEL-5 melanoma) greater than 100 µM, a TGI (RPMI-8226 leukemia) greater than 100 µM and a TGI (MOLT-4 leukemia) greater than 100 µM. For the same molecule, the TGI (ACHN renal) was greater than 100 µM, the TGI (UACC-62 melanoma) was greater than 100 µM and the TGI (SK-MEL-2 melanoma) was greater than 100 µM. It also gave a TGI (HOP-92 NSCLC) of 21.3 µM, a TGI (NCI/ADR-RES ovarian) of 87.8 µM and a TGI (HT29 colon) greater than 100 µM. The TGI (OVCAR-3 ovarian) was greater than 100 µM, the TGI (EKVX NSCLC) was greater than 100 µM and the TGI (UACC-257 melanoma) was greater than 100 µM. For the same molecule, the TGI (PC-3 prostate) was greater than 100 µM, the TGI (SR leukemia) was greater than 100 µM and the TGI (SF-539 CNS) was greater than 100 µM. The TGI (KM12 colon) was greater than 100 µM, the TGI (SK-MEL-28 melanoma) was greater than 100 µM and the TGI (CAKI-1 renal) was greater than 100 µM. The TGI (OVCAR-4 ovarian) was greater than 100 µM, the TGI (T-47D breast) was greater than 100 µM and the TGI (MALME-3M melanoma) was greater than 100 µM. It also gave a TGI (HCC-2998 colon) greater than 100 µM, a TGI (IGROV1 ovarian) greater than 100 µM and a TGI (MDA-MB-231 breast) greater than 100 µM. For the same molecule, the TGI (SF-295 CNS) was greater than 100 µM, the TGI (SNB-75 CNS) was greater than 100 µM and the TGI (HCT-15 colon) was greater than 100 µM. It also gave a TGI (OVCAR-8 ovarian) greater than 100 µM, a TGI (SK-OV-3 ovarian) greater than 100 µM and a TGI (A498 renal) greater than 100 µM. It also gave a TGI (M14 melanoma) greater than 100 µM, a TGI (UO-31 renal) greater than 100 µM and a TGI (U251 CNS) greater than 100 µM. For the same molecule, the TGI (786-0 renal) was greater than 100 µM, the TGI (HS 578T breast) was greater than 100 µM and the TGI (TK-10 renal) was greater than 100 µM. It also gave a TGI (DU-145 prostate) greater than 100 µM, a TGI (MCF7 breast) greater than 100 µM and a TGI (BT-549 breast) of 90.3 µM. For the same molecule, the TGI (SW-620 colon) was greater than 100 µM, the TGI (CCRF-CEM leukemia) was 32.8 µM and the TGI (LOX IMVI melanoma) was greater than 100 µM. The TGI (K-562 leukemia) was greater than 100 µM, the TGI (HCT-116 colon) was greater than 100 µM and the TGI (A549 NSCLC) was greater than 100 µM. It also gave a TGI (SN12C renal) greater than 100 µM, a TGI (OVCAR-5 ovarian) greater than 100 µM and a TGI (NCI-H226 lung) of 93.8 µM. It also gave a TGI (NCI-H23 lung) greater than 100 µM, a TGI (SNB-19 CNS) greater than 100 µM and a TGI (MDA-MB-435) greater than 100 µM. For the same molecule, the TGI (COLO 205 colon) was greater than 100 µM, the TGI (HOP-62 NSCLC) was greater than 100 µM and the TGI (SF-268 CNS) was greater than 100 µM.
`Cc1sc2nc(-c3ccc([N+](=O)[O-])cc3)c(/C=N/N=C(N)N)n2c1C` gave a TGI (ACHN renal) of 2.61 µM, a TGI (HOP-92 NSCLC) of 2.81 µM and a TGI (NCI/ADR-RES ovarian) of 11 µM. The TGI (HT29 colon) was 1.63 µM, the TGI (EKVX NSCLC) was 2.41 µM and the TGI (UACC-257 melanoma) was 2.77 µM. For the same molecule, the TGI (PC-3 prostate) was 2.65 µM, the TGI (SF-539 CNS) was 3.26 µM and the TGI (KM12 colon) was 1.03 µM. It also gave a TGI (SK-MEL-28 melanoma) of 1.37 µM, a TGI (T-47D breast) of 3.1 µM and a TGI (HCC-2998 colon) of 0.693 µM. For the same molecule, the TGI (IGROV1 ovarian) was 2.71 µM, the TGI (MDA-MB-231 breast) was 1.17 µM and the TGI (SF-295 CNS) was 2.42 µM. For the same molecule, the TGI (HCT-15 colon) was 2.82 µM, the TGI (OVCAR-8 ovarian) was 1.8 µM and the TGI (SK-OV-3 ovarian) was 3.12 µM. It also gave a TGI (M14 melanoma) of 1.99 µM, a TGI (UO-31 renal) of 2.98 µM and a TGI (U251 CNS) of 0.358 µM. For the same molecule, the TGI (786-0 renal) was 0.637 µM, the TGI (HS 578T breast) was 3.49 µM and the TGI (TK-10 renal) was 2.84 µM. It also gave a TGI (DU-145 prostate) of 2.74 µM, a TGI (BT-549 breast) of 2.79 µM and a TGI (HCT-116 colon) of 0.427 µM. It also gave a TGI (A549 NSCLC) of 2.88 µM, a TGI (OVCAR-5 ovarian) of 2.81 µM and a TGI (NCI-H23 lung) of 2.73 µM. For the same molecule, the TGI (MDA-MB-435) was 2.25 µM, the TGI (COLO 205 colon) was 0.809 µM and the TGI (HOP-62 NSCLC) was 2.12 µM.
